Measured values as given in patent US12416052B2, “Capturing, concentrating, and detecting microbes in a sample using magnetic ionic liquids and recombinase polymerase amplification” (priority 2019, dated 2025).
“Also recorded” adds a separate entry of the source.

Tests used:
E. coli O157:H7 N192-6-1 = assay: MIL-based whole-cell extraction; set-up: species or system Escherichia coli; conditions: 1×10^6 CFU mL^−1 in TSB, 15 μL MIL
Procedure: (§1) A universal schematic for MIL-based cell extraction is depicted in FIG. 7B. A 1 mL volume of diluted cell suspension was added to a flat-bottomed 4-mL screw cap glass vial. Fifteen microliters of either the Ni(II) or Dy(III) MIL was added and dispersed into microdroplets by vortex agitation for 30 s. The aqueous phase was decanted following dispersive extraction, and the MIL was subjected to a brief wash step using 1 mL of nuclease-free water (Integrated DNA Technologies, Coralville, IA, USA) to ensure adequate removal of loosely or incidentally bound cells. After washing, release of viable cells from the MIL extraction phase was carried out using a “back-extraction” step accomplished through addition of 1 mL of an ionically-rich nutritive medium comprised of 20 g L^−1 tryptone and 10 g L^−1 NaCl, followed by a 120 s vortex step. After back-extraction, aliquots of the cell-enriched back-extraction medium were enumerated using the track dilution method using 100×100 mm square, gridded TSA, BSA, CA or VRBGA plates.
(§2) Following back-extraction, aliquots of the cell-enriched back-extraction medium were serially diluted in 0.1% peptone water and a 10 μL aliquot of each dilution was applied to a separate lane on square plates containing an appropriate agar medium. The plates were then tilted at an approximately 80° angle for 15 min to allow the droplets to travel toward the opposite end of the plate. The plates were incubated for 24 h at 37° C. (TSA, VRBGA), for 48 h at 37° C. (BSA) or for 24 h at 37° C. (CA). Colonies were counted and colony forming units (CFU) were determined. The enrichment factor (EF) for MIL-based extraction was calculated using Equation 1, where CMIL represents the concentration of bacteria in suspension following extraction using the MIL and CS is the initial concentration of bacteria in the sample.
(§3) In order to explore the broader utility of our approach, evaluation of additional cell types is needed. We began this extended evaluation of the Ni(II) MIL with seven representative DNA subgroups of Salmonella and eight strains of E. coli O157:H7. Briefly, a 1 mL aliquot of TSB was inoculated with 1×10^6 CFU mL^−1 of bacteria, and spiked with 15 μL of the Ni(II) MIL. MIL-based extraction was performed and 10 μL aliquots of the back-extraction solution were enumerated using TSA and BSA plates (Salmonella) or TSA plates (E. coli O157:H7). […] We later determined that VRBGA was a suitable common medium for this purpose and used this in our statistical analysis. Average CFU counts were compared to standards that were not exposed to the Ni(II) MIL. Enrichment factors were calculated for Salmonella on both non-selective (TSA) and selective agars (BSA) and for E. coli O157:H7 on non-selective agar (TSA). […] Note: As BSA is a Salmonella-specific agar E. coli O157:H7 was not plated to BSA in this example.

E. coli O157:H7 N405-5-8 = assay: MIL-based whole-cell extraction; set-up: species or system Escherichia coli; conditions: 1×10^6 CFU mL^−1 in TSB, 15 μL MIL
Procedure: as §1, §2, §3

E. coli O157:H7 N192-5-1 = assay: MIL-based whole-cell extraction; set-up: species or system Escherichia coli; conditions: 1×10^6 CFU mL^−1 in TSB, 15 μL MIL
Procedure: as §1, §2, §3

[1] = tested on: S. typhimurium ATCC 14028; assay: Exposure of cells and plating on non-selective (TSA) and selective (BSA) agar (viability, injury, toxicity); format: cell-based, Salmonella enterica; conditions: exposure 0 to 15 min, 15 μL MIL
Procedure: To examine whether exposure time to the Ni(II) MIL affected cell viability, MIL-based whole-cell extraction was performed using the Ni(II) MIL, and cell-enriched back-extraction media were enumerated at 0, 5, 10 and 15 min on both TSA and BSA. To evaluate toxicity of the [EMIM^+][SCN^−] IL, one milliliter of diluted S. typhimurium ATCC 14028 cell suspension was added to a 4-mL screw cap glass vial. A 5% (vol/vol) or 50% (vol/vol) aqueous solution of 1-ethyl-3-methylimidazolium thiocyanate (“[EMIM^+][SCN^−]”) (IoLiTec, Tuscaloosa, AL, USA) was added and mixed by vortexing for 30 s. Aliquots were enumerated at 0, 5, 10 and 15 min using TSA and BSA.
One milliliter of diluted S. typhimurium ATCC 14028 cell suspension was added to a 4-mL screw cap glass vial. Fifteen microliters of either the Dy(III) MIL or 2-10 μL of 100 mM DyCh solution or 10 mg of the ammonium tetra(hexafluoroaceto)dysprosium salt (15) ([NH4^+][Dy(hfacac)4^−]) (“Dy(III) ammonium salt”) was added and dispersed by vortex agitation for 30 s. Aliquots of the Dy(III) MIL- or Dy(III) ammonium salt-exposed cell suspension were enumerated using square TSA or BSA plates (BD).
Because culture-based methods depend on sample preparation steps that preserve bacterial viability, potential deleterious cytotoxic effects imparted by MIL extractants must be considered. To begin our further study of MIL-bacterial interactions, we selected S. typhimurium ATCC 14028 as a model gram-negative pathogen and the Ni(II) MIL as extractant. Briefly, a 1 mL aliquot of TSB was inoculated with 1×10^5 CFU mL^−1 of bacteria and spiked with 15 μL of the Ni(II) MIL, and the general schematic for MIL-based extraction and recovery followed as shown in FIG. 7B. After extraction, 10 μL aliquots of the back-extraction solution were enumerated at 0, 5, 10 and 15 min using TSA and BSA. Average CFU counts were compared to a standard that was not exposed to the Ni(II) MIL. […] To better understand the data in FIG. 8, statistical analyses of Ni(II) MIL capture precision and CFU count variation as a function of MIL exposure time were performed. Variation in MIL capture may stem from inherent randomness of MIL dispersion and coalescence behaviors.
The effects of 5% or 50% (vol/vol) aqueous solutions of the [EMIM^+][SCN^−] IL on the viability of the cells were also evaluated. Average CFU counts were compared to a standard not exposed to [EMIM^+][SCN^−]. In our hands, when S. typhimurium was exposed to 50% (vol/vol) solutions of [EMIM^+][SCN^−], no recovery was observed on either TSA or BSA after 5 min of exposure.
To gain further insight into this phenomenon, the effect of free elemental dysprosium was evaluated by subjecting the cells to 0.1 mM and 1.0 mM solutions of DyCl3. The cells were exposed to the metal salt solutions for 30 s and subsequently plated on selective and non-selective media.
While the metal did show cytotoxicity, it cannot be completely responsible for the Dy(III) MIL's effect on the cells, as no flocculation was seen and growth was still observed. Since both the Ni(II) and the Dy(III) MILs contain identical cations ([P6,6,6,14^+]), the role of the anion structure was evaluated. The anion of the Dy(III) MIL contains one additional hexafluoroacetylacetonate ligand than the Ni(II) MIL (FIG. 7), making the coordination geometry of the two complexes different. To test the effects of the anion structure, cells were subjected to 10 mg of the Dy(III) ammonium salt. After a 30 second vortex, similar flocculation was observed as when the cells were exposed to the native Dy(III) MIL.

E. amylovora Ea935 = assay: MIL-based whole-cell extraction; set-up: species or system Erwinia amylovora; conditions: EF determined using Columbia Agar
Procedure: A universal schematic for MIL-based cell extraction is depicted in FIG. 7B. A 1 mL volume of diluted cell suspension was added to a flat-bottomed 4-mL screw cap glass vial. Fifteen microliters of either the Ni(II) or Dy(III) MIL was added and dispersed into microdroplets by vortex agitation for 30 s. The aqueous phase was decanted following dispersive extraction, and the MIL was subjected to a brief wash step using 1 mL of nuclease-free water (Integrated DNA Technologies, Coralville, IA, USA) to ensure adequate removal of loosely or incidentally bound cells. […]
as §2, with “The plates were then tilted at an approximately 80° angle for 15 min to allow the droplets to travel toward the opposite end of the plate. The plates were incubated for 24 h at 37° C. (TSA, VRBGA), for 48 h at 37° C. (BSA) or for 24 h at 37° C. (CA).” left out

In the case of `CCCCCCCCCCCCCC[P+](CCCCCC)(CCCCCC)CCCCCC.O=C([CH-]C(=O)C(F)(F)F)C(F)(F)F.O=C([CH-]C(=O)C(F)(F)F)C(F)(F)F.O=C([CH-]C(=O)C(F)(F)F)C(F)(F)F.[Ni+2]` [Ni(II) MIL, [P66614^+][Ni(hfacac)3^−]], the “Enrichment Factor (TSA)” value (E. coli O157:H7 N192-6-1) is reported as 9, the “Enrichment Factor (TSA)” value (E. coli O157:H7 N405-5-8) is reported as 2 and the “Enrichment Factor (TSA)” value (E. coli O157:H7 N192-5-1) is reported as 7. For the same compound, the “injury to S. typhimurium: average CFU counts on TSA and BSA” value [1] was “did not cause detectable injury; also recorded: appeared to be similar” and the “Enrichment Factor” value (E. amylovora Ea935) was 10.
